Like-named read-outs stand apart in the source and are kept apart here.
What was measured:
Experiment in all cases: NCI-60 antiproliferative screen (SRB)
CCRF-CEM = assay type: cell-based, human; conditions: 48 h
K-562 = assay type: cell-based, human; conditions: 48 h
RPMI-8226 = assay type: cell-based, human; conditions: 48 h
A549/ATCC = assay type: cell-based, human; conditions: 48 h
HOP-92 = assay type: cell-based, human; conditions: 48 h
NCI-H460 = assay type: cell-based, human; conditions: 48 h
HCT-116 = assay type: cell-based, human; conditions: 48 h
SF-268 = assay type: cell-based, human; conditions: 48 h
SF-295 = assay type: cell-based, human; conditions: 48 h
U251 = assay type: cell-based, human; conditions: 48 h
SK-MEL-2 = assay type: cell-based, human; conditions: 48 h
SK-MEL-28 = assay type: cell-based, human
UACC-257 = assay type: cell-based, human; conditions: 48 h
OVCAR-5 = assay type: cell-based, human; conditions: 48 h
OVCAR-8 = assay type: cell-based, human; conditions: 48 h
NCI/ADR-RES = assay type: cell-based, human; conditions: 48 h
786-0 = assay type: cell-based, human; conditions: 48 h
A498 = assay type: cell-based, human; conditions: 48 h
ACHN = assay type: cell-based, human; conditions: 48 h
RXF 393 = assay type: cell-based, human; conditions: 48 h
TK-10 = assay type: cell-based, human; conditions: 48 h
PC-3 = assay type: cell-based, human; conditions: 48 h
DU-145 = assay type: cell-based, human; conditions: 48 h
MCF7 = assay type: cell-based, human; conditions: 48 h
MDA-MB-231 = assay type: cell-based, human; conditions: 48 h
HS 578T = assay type: cell-based, human; conditions: 48 h
BT-549 = assay type: cell-based, human; conditions: 48 h
MDA-MB-468 = assay type: cell-based, human; conditions: 48 h
OVCAR-4 = conditions: Homo sapiens, OVCAR-4, 48 h, read-out: Growth inhibition (%)

Structure (SMILES): O=C1Nc2cc(Cl)ccc2C1=Cc1ccc(OCc2cccnc2)cc1 (mixture of isomers) [Compound 5l, (E/Z)-6-Chloro-3-[4-(pyridin-3-ylmethoxy)benzylidene] indolin-2-one]
- inhibition at 10 µM (CCRF-CEM; Homo sapiens, 10 µM single dose, CCRF-CEM (Leukemia), read-out: Growth inhibition (%)): 83.9%
- GI50 (CCRF-CEM; Homo sapiens, five-dose, CCRF-CEM): 3.72 µM
- TGI (CCRF-CEM; five-dose, CCRF-CEM): >100 µM
- inhibition at 10 µM (K-562; Homo sapiens, K562, 10 µM single dose, K-562 (Leukemia), read-out: Growth inhibition (%)): 95%
- GI50 (K-562; Homo sapiens, K562, five-dose, K-562): 3.08 µM
- CC50 (K-562; Homo sapiens, K562, five-dose, K-562, read-out: LC50 (the source's name)): > 100 µM
- TGI (K-562; five-dose, K-562): >100 µM
- inhibition at 10 µM (RPMI-8226; Homo sapiens, 10 µM single dose, RPMI-8226 (Leukemia), read-out: Growth inhibition (%)): 95.5%
- GI50 (RPMI-8226; Homo sapiens, five-dose, RPMI-8226): 3.09 µM
- CC50 (RPMI-8226; Homo sapiens, five-dose, RPMI-8226, read-out: LC50 (the source's name)): > 100 µM
- TGI (RPMI-8226; five-dose, RPMI-8226): >100 µM
- inhibition at 10 µM (A549/ATCC; Homo sapiens, 10 µM single dose, A549/ATCC (NSCLC), read-out: Growth inhibition (%)): 58.8%
- GI50 (A549/ATCC; Homo sapiens, five-dose, A549/ATCC): 15.5 µM
- TGI (A549/ATCC; five-dose, A549/ATCC): >100 µM
- inhibition at 10 µM (HOP-92; Homo sapiens, 10 µM single dose, HOP-92 (NSCLC), read-out: Growth inhibition (%)): 56.1%
- GI50 (HOP-92; Homo sapiens, five-dose, HOP-92): 6.51 µM
- TGI (HOP-92; five-dose, HOP-92): 62.70 µM
- inhibition at 10 µM (NCI-H460; Homo sapiens, 10 µM single dose, NCI-H460 (NSCLC), read-out: Growth inhibition (%)): 77.7%
- GI50 (NCI-H460; Homo sapiens, five-dose, NCI-H460): 14 µM
- CC50 (NCI-H460; Homo sapiens, five-dose, NCI-H460, read-out: LC50 (the source's name)): > 100 µM
- TGI (NCI-H460; five-dose, NCI-H460): >100 µM
- inhibition at 10 µM (HCT-116; Homo sapiens, 10 µM single dose, HCT-116 (Colon), read-out: Growth inhibition (%)): 93%
- GI50 (HCT-116; Homo sapiens, five-dose, HCT-116): 6.97 µM
- TGI (HCT-116; five-dose, HCT-116): >100 µM
- inhibition at 10 µM (SF-268; Homo sapiens, 10 µM single dose, SF-268 (CNS), read-out: Growth inhibition (%)): 45.4%
- GI50 (SF-268; Homo sapiens, five-dose, SF-268): 10.8 µM
- CC50 (SF-268; Homo sapiens, five-dose, SF-268, read-out: LC50 (the source's name)): > 100 µM
- TGI (SF-268; five-dose, SF-268): 88.10 µM
- inhibition at 10 µM (SF-295; Homo sapiens, 10 µM single dose, SF-295 (CNS), read-out: Growth inhibition (%)): 63.3%
- GI50 (SF-295; Homo sapiens, five-dose, SF-295): 10.6 µM
- TGI (SF-295; five-dose, SF-295): 39.90 µM
- inhibition at 10 µM (U251; Homo sapiens, U-251, 10 µM single dose, U251 (CNS), read-out: Growth inhibition (%)): 76.4%
- GI50 (U251; Homo sapiens, U-251, five-dose, U251): 7.55 µM
- CC50 (U251; Homo sapiens, U-251, five-dose, U251, read-out: LC50 (the source's name)): > 100 µM
- TGI (U251; five-dose, U251): 39.40 µM
- inhibition at 10 µM (SK-MEL-2; Homo sapiens, 10 µM single dose, SK-MEL-2 (Melanoma), read-out: Growth inhibition (%)): 66.2%
- GI50 (SK-MEL-2; Homo sapiens, five-dose, SK-MEL-2): 9.67 µM
- CC50 (SK-MEL-2; Homo sapiens, five-dose, SK-MEL-2, read-out: LC50 (the source's name)): > 100 µM
- TGI (SK-MEL-2; five-dose, SK-MEL-2): 65.90 µM
- CC50 (SK-MEL-28; Homo sapiens, SK-MEL-28, 48 h, five-dose, SK-MEL-28, read-out: LC50 (the source's name)): 71.5 µM
- inhibition at 10 µM (SK-MEL-28; Homo sapiens, 10 µM single dose, 48 h, SK-MEL-28 (Melanoma), read-out: Growth inhibition (%)): 46.3%
- GI50 (SK-MEL-28; Homo sapiens, five-dose, 48 h, SK-MEL-28): 12.3 µM
- TGI (SK-MEL-28; five-dose, 48 h, SK-MEL-28): 28.50 µM
- CC50 (SK-MEL-28; five-dose, 48 h, SK-MEL-28, read-out: LC50 (the source's name)): 65.6 µM
- inhibition at 10 µM (UACC-257; Homo sapiens, 10 µM single dose, UACC-257 (Melanoma), read-out: Growth inhibition (%)): 76.7%
- GI50 (UACC-257; Homo sapiens, five-dose, UACC-257): 8.06 µM
- CC50 (UACC-257; Homo sapiens, five-dose, UACC-257, read-out: LC50 (the source's name)): > 100 µM
- TGI (UACC-257; five-dose, UACC-257): 43.80 µM
- inhibition at 10 µM (OVCAR-5; Homo sapiens, 10 µM single dose, OVCAR-5 (Ovarian), read-out: Growth inhibition (%)): 21.7%
- GI50 (OVCAR-5; Homo sapiens, five-dose, OVCAR-5): 25 µM
- TGI (OVCAR-5; five-dose, OVCAR-5): >100 µM
- inhibition at 10 µM (OVCAR-8; Homo sapiens, 10 µM single dose, OVCAR-8 (Ovarian), read-out: Growth inhibition (%)): 88.6%
- GI50 (OVCAR-8; Homo sapiens, five-dose, OVCAR-8): 7.96 µM
- TGI (OVCAR-8; five-dose, OVCAR-8): 45.20 µM
- inhibition at 10 µM (NCI/ADR-RES; Homo sapiens, 10 µM single dose, NCI/ADR-RES (Ovarian), read-out: Growth inhibition (%)): 112%
- GI50 (NCI/ADR-RES; Homo sapiens, five-dose, NCI/ADR-RES): 3.45 µM
- TGI (NCI/ADR-RES; five-dose, NCI/ADR-RES): 23.60 µM
- inhibition at 10 µM (786-0; Homo sapiens, 10 µM single dose, 786-0 (Renal), read-out: Growth inhibition (%)): 47.2%
- GI50 (786-0; Homo sapiens, five-dose, 786-0): 26.6 µM
- CC50 (786-0; Homo sapiens, five-dose, 786-0, read-out: LC50 (the source's name)): > 100 µM
- TGI (786-0; five-dose, 786-0): >100 µM
- inhibition at 10 µM (A498; Homo sapiens, 10 µM single dose, A498 (Renal), read-out: Growth inhibition (%)): 8.9%
- GI50 (A498; Homo sapiens, five-dose, A498): 18 µM
- CC50 (A498; Homo sapiens, five-dose, A498, read-out: LC50 (the source's name)): > 100 µM
- TGI (A498; five-dose, A498): 85.20 µM
- inhibition at 10 µM (ACHN; Homo sapiens, 10 µM single dose, ACHN (Renal), read-out: Growth inhibition (%)): 55.1%
- GI50 (ACHN; Homo sapiens, five-dose, ACHN): 10.8 µM
- TGI (ACHN; five-dose, ACHN): 75.30 µM
- GI50 (RXF 393; Homo sapiens, RXF 393, five-dose, RXF393): 9.07 µM
- CC50 (RXF 393; Homo sapiens, RXF 393, five-dose, RXF393, read-out: LC50 (the source's name)): > 100 µM
- inhibition at 10 µM (RXF 393; Homo sapiens, 10 µM single dose, RXF 393 (Renal), read-out: Growth inhibition (%)): 63.4%
- TGI (RXF 393; five-dose, RXF393): 90.20 µM
- inhibition at 10 µM (TK-10; Homo sapiens, 10 µM single dose, TK-10 (Renal), read-out: Growth inhibition (%)): 29.4%
- GI50 (TK-10; Homo sapiens, five-dose, TK-10): 77.1 µM
- CC50 (TK-10; Homo sapiens, five-dose, TK-10, read-out: LC50 (the source's name)): > 100 µM
- TGI (TK-10; five-dose, TK-10): >100 µM
- inhibition at 10 µM (PC-3; Homo sapiens, 10 µM single dose, PC-3 (Prostate), read-out: Growth inhibition (%)): 67.1%
- GI50 (PC-3; Homo sapiens, five-dose, PC-3): 6.37 µM
- CC50 (PC-3; Homo sapiens, five-dose, PC-3, read-out: LC50 (the source's name)): > 100 µM
- TGI (PC-3; five-dose, PC-3): >100 µM
- inhibition at 10 µM (DU-145; Homo sapiens, 10 µM single dose, DU-145 (Prostate), read-out: Growth inhibition (%)): 58.6%
- GI50 (DU-145; Homo sapiens, five-dose, DU-145): 13.2 µM
- TGI (DU-145; five-dose, DU-145): 54.90 µM
- inhibition at 10 µM (MCF7; Homo sapiens, 10 µM single dose, MCF7 (Breast), read-out: Growth inhibition (%)): 90.5%
- GI50 (MCF7; Homo sapiens, five-dose, MCF7): 2.9 µM
- CC50 (MCF7; Homo sapiens, five-dose, MCF7, read-out: LC50 (the source's name)): > 100 µM
- TGI (MCF7; five-dose, MCF7): 30.90 µM
- inhibition at 10 µM (MDA-MB-231; Homo sapiens, 10 µM single dose, MDA-MB-231 (Breast), read-out: Growth inhibition (%)): 67.5%
- GI50 (MDA-MB-231; Homo sapiens, five-dose, MDA-MB-231/ATCC): 15.8 µM
- CC50 (MDA-MB-231; Homo sapiens, five-dose, MDA-MB-231/ATCC, read-out: LC50 (the source's name)): > 100 µM
- TGI (MDA-MB-231; five-dose, MDA-MB-231/ATCC): >100 µM
- inhibition at 10 µM (HS 578T; Homo sapiens, 10 µM single dose, HS 578T (Breast), read-out: Growth inhibition (%)): 62.7%
- GI50 (HS 578T; Homo sapiens, five-dose, HS 578T): 12.8 µM
- CC50 (HS 578T; Homo sapiens, five-dose, HS 578T, read-out: LC50 (the source's name)): > 100 µM
- TGI (HS 578T; five-dose, HS 578T): 98.10 µM
- inhibition at 10 µM (BT-549; Homo sapiens, 10 µM single dose, BT-549 (Breast), read-out: Growth inhibition (%)): 95.7%
- GI50 (BT-549; Homo sapiens, five-dose, BT-549): 10.4 µM
- CC50 (BT-549; Homo sapiens, five-dose, BT-549, read-out: LC50 (the source's name)): > 100 µM
- TGI (BT-549; five-dose, BT-549): 46.30 µM
- inhibition at 10 µM (MDA-MB-468; Homo sapiens, 10 µM single dose, MDA-MB-468 (Breast), read-out: Growth inhibition (%)): 85.7%
- GI50 (MDA-MB-468; Homo sapiens, five-dose, MDA-MB-468): 3.76 µM
- CC50 (MDA-MB-468; Homo sapiens, five-dose, MDA-MB-468, read-out: LC50 (the source's name)): > 100 µM
- TGI (MDA-MB-468; five-dose, MDA-MB-468): 43.00 µM
- inhibition at 10 µM (OVCAR-4): 68.4%

— publication PMC11124822, “Discovery and Anticancer Screening of Novel Oxindole-Based Derivative Bearing Pyridyl Group as Potent and Selective Dual FLT3/CDK2 Kinase Inhibitor” (Pharmaceuticals, 2024)
